Measurements as given in ChEMBL document CHEMBL1158647, “Synthesis and Pharmacology of Mangostin-3,6-di-O-glucoside” (1979).
Active and inactive are the calls of the source. No cut-off for these calls is given here.

Tests used:
Mus musculus [1] = assay: Effect on gross behavioral activity in Swiss albino mouse assessed as ptosis at 200 mg/kg, ip using smoked drum; assay type: functional, organism-based; parameters: dose 200 mg/kg
Canis familiaris [2] = assay: Increase in intestinal movement in anesthetized Mongrel dog at 25 mg/kg, iv; assay type: functional, organism-based; parameters: dose 25 mg/kg; conditions: Canis lupus familiaris
Canis familiaris [3] = assay: Increase in carotid blood pressure in anesthetized Mongrel dog at 25 mg/kg, iv in presence of adrenaline; assay type: functional, organism-based; parameters: dose 25 mg/kg; conditions: Canis lupus familiaris
Mus musculus [4] = assay: Effect on gross behavioral activity in Swiss albino mouse assessed as CNS depression at 100 mg/kg, ip using smoked drum; assay type: functional, organism-based; parameters: dose 100 mg/kg; conditions: Central nervous system
Canis familiaris [5] = assay: Increase in respiration in anesthetized Mongrel dog at 25 mg/kg, iv; assay type: functional, organism-based; parameters: dose 25 mg/kg; conditions: Canis lupus familiaris
Mus musculus [6] = assay: Effect on gross behavioral activity in Swiss albino mouse assessed as ptosis at 100 mg/kg, ip using smoked drum; assay type: functional, organism-based; parameters: dose 100 mg/kg
Mus musculus [7] = assay: Effect on gross behavioral activity in Swiss albino mouse assessed as spontaneous motor activity at 200 mg/kg, ip after 45 mins using smoked drum; assay type: functional, organism-based; parameters: dose 200 mg/kg
Mus musculus [8] = assay: Effect on gross behavioral activity in Swiss albino mouse assessed as sedation at 200 mg/kg, ip using smoked drum; assay type: functional, organism-based; parameters: dose 200 mg/kg
Canis familiaris [9] = assay: Increase in carotid blood pressure in anesthetized Mongrel dog at 25 mg/kg, iv; assay type: functional, organism-based; parameters: dose 25 mg/kg; conditions: Canis lupus familiaris
Rattus norvegicus = assay: Increase in pentobarbital-induced sleeping time in Wistar albino rat administered 30 mins before pentobarbital challenge relative to control; assay type: functional
Mus musculus [10] = assay: Effect on gross behavioral activity in Swiss albino mouse assessed as spontaneous motor activity at 5 mg/kg, ip after 45 mins using smoked drum; assay type: functional, organism-based; parameters: dose 5 mg/kg
Mus musculus [11] = assay: Effect on gross behavioral activity in Swiss albino mouse assessed as decrease in motor activity at 100 mg/kg, ip using smoked drum; assay type: functional, organism-based; parameters: dose 100 mg/kg
Mus musculus [12] = assay: Effect on gross behavioral activity in Swiss albino mouse assessed as CNS depression at 200 mg/kg, ip using smoked drum; assay type: functional, organism-based; parameters: dose 200 mg/kg; conditions: Central nervous system
Mus musculus [13] = assay: Effect on gross behavioral activity in Swiss albino mouse assessed as CNS depression at 300 mg/kg, ip using smoked drum; assay type: functional, organism-based; parameters: dose 300 mg/kg; conditions: Central nervous system
Mus musculus [14] = assay: Effect on gross behavioral activity in Swiss albino mouse assessed as sedation at 100 mg/kg, ip using smoked drum; assay type: functional, organism-based; parameters: dose 100 mg/kg
Canis familiaris [15] = assay: Increase in carotid blood pressure in anesthetized Mongrel dog at 25 mg/kg, iv in presence of Priscol; assay type: functional, organism-based; parameters: dose 25 mg/kg; conditions: Canis lupus familiaris
Mus musculus [16] = assay: Effect on gross behavioral activity in Swiss albino mouse assessed as decrease in motor activity at 200 mg/kg, ip using smoked drum; assay type: functional, organism-based; parameters: dose 200 mg/kg

Compound | Activity (Mus musculus [1]) | Activity (Canis familiaris [2]) | Activity (Canis familiaris [3]) | Activity (Mus musculus [4]) | Activity (Canis familiaris [5]) | Activity (Mus musculus [6]) | Activity (Mus musculus [7]) | Activity (Mus musculus [8]) | Activity (Canis familiaris [9]) | Activity (Rattus norvegicus) | Activity (Mus musculus [10]) | Activity (Mus musculus [11]) | Activity (Mus musculus [12]) | Activity (Mus musculus [13]) | Activity (Mus musculus [14]) | Activity (Canis familiaris [15]) | Activity (Mus musculus [16])
COc1c(O[C@@H]2O[C@H](CO)[C@@H](O)[C@H](O)[C@H]2O)cc2oc3cc(O[C@@H]4O[C@H](CO)[C@@H](O)[C@H](O)[C@H]4O)c(CC=C(C)C)c(O)c3c(=O)c2c1CC=C(C)C | Active | Active | Active | Active | Active | Active | Active | Active | Active | 53.81% | Active | Active | Active | Active | Active | Active | Active
C[C@H](N)Cc1ccccc1 |  |  |  |  |  |  |  |  |  |  | Active |  |  |  |  |  | 
CN(C)CCCN1c2ccccc2Sc2ccc(Cl)cc21 |  |  |  |  |  |  |  |  |  |  | Active |  |  |  |  |  | 
